This note sets out measurements from PMC7912796, “Design, Synthesis, Anticancer Activity, and Solid Lipid Nanoparticle Formulation of Indole- and Benzimidazole-Based Compounds as Pro-Apoptotic Agents Targeting Bcl-2 Protein” (Pharmaceuticals, 2021).

The subject of test [1] is MDA-MB-231/breast cancer cell line. Put plainly: Apoptosis rate analysis, Annexin-V/FACS. In kind it is cell-based, human. To be noted: 13 µM, 48 h. An excerpt:
Using flow cytometry, apoptosis rate analysis was proceeded through staining the cell surface-translocating phosphatidylserine with Annexin-V fluorescent conjugate, the calcium-dependent phospholipid binding protein [32]. However, cell cycle analysis was achieved using propidium iodine fluorescent dye to stoichiometrically stain cell DNA contents allowing quantitation and identification of all cell phase rates; G0-G1, S, G2/M, and pre-G1 [33, 34]. […] For identifying the mode of cell death promoted by 8b within MDA-MB-231/breast cancer cells, apoptosis rate analysis was performed following 48 h exposure time. […] Moreover, the average proportion of Annexin-V stained positive cells (total apoptotic cells) elevated from 1.72% within untreated cells to 18.93% in treated ones (p < 0.001). […] The above provided findings are supported by the previous cell cycle analysis confirming the potentiality of 8b as promising anticancer agent.
Apoptotic assay and cell cycle analysis were proceeded according to previous literatures. In brief, cells were planted in 1.0 × 10^6 cells/flask density for 24 h. Subsequently, 8b was added at its IC50 value and incubated for 48 h. Following incubation, MDA-MB-231 cells were trypsinized, harvested, and fixed according to information cited within Annexin® V-FITC Detection Kit (Cat.#: K101-25, BioVision^TM, Milpitas, CA, USA), for quantifying cell’s DNA contents being treated with 8b relative to control sample using propidium iodide stain (Cat.#: ab139418; Abcam^TM, Cambridge, MA, USA). Finally, flow cytometry analysis was done using BD-FACSCalibur® cell analyzer platform (Becton Dickinson-Biosciences-SG^TM, Singapore, Thailand) to estimate which cell cycle phase, the treated cells would be arrested in, as well as computing the percentage of apoptotic cells.

Test [2] shares this test system. Put plainly: DNA fragmentation assay. To be noted: 13 µM, 48 h and 72 h, agarose gel ladder. In kind it is cell-based, human. On the procedure:
In order to delineate the mechanistic aspects of MDA-MB-231/breast cancer cell death mediated by 8b, the DNA fragmentation assay was conducted as being highly characteristic for apoptosis. […] A typical ladder pattern of internucleosomal fragmentation was observed from cell homogenates within both incubation periods (Figure 8). Such findings further confirm the significant activity of 8b as a potent inducer of apoptosis.
DNA isolation was performed through planting MDA-MB-231/breast cells at 0.16x10^6 density, prior to incubation at 37 °C/humidified 5% CO2 overnight. Following 48 h exposure time, cells were harvested, washed and lysed via DNA-extraction buffer at 37 °C overnight. The lysate was incubated after that with 100 μg/mL […] (Cat.#: 9097.1; Carl-Roth^TM, Karlsruhe, Germany) at 37 °C for 2 h, which was followed by three extraction processes using phenol:CHCl3 (1:1 v/v) (Bioflux^TM, Selangor, Malaysia). A consequent re-extraction was done using CHCl3 and then the organic solvent was centrifuged for 5 min at 12,000 rpm within 4 °C conditions. Extracted DNA was precipitated via ice-cold 3 M sodium acetate and absolute ethanol for 1 h at –20 °C, which was then proceeded through centrifugation (15 min—at 12,000 rpm—4 °C). […]

Test [3] relates to human cytochrome c protein. The test can be described thus: ELISA protein level. In kind it is cell-based. To be noted: 13 μM, 48 h, MDA-MB-231; control 0.295 ng/mL. As for the experimental part: Dissection of the compound’s proapoptotic activity was proceeded through gene expression analysis for key genes, controlling apoptosis pathway, as well as protein level determination. Following 8b treatment for 48 h, alterations within MDA-MB-231/breast cancer cell expression of Bcl-2, Bax, caspase-3, -8, and -9 genes, as well as cytochrome c and class-III β-tubulin proteins levels were determined using real-time polymerase chain reaction (RT-PCR) or ELISA technique, respectively. Typically, Bcl-2, Bax, caspases, and cytochrome c proteins contributes within the regulation of apoptotic signaling. Acting as apoptotic activator (Bax) or inhibitor (Bcl-2), the Bcl-2 family proteins play their significant role in apoptosis. The caspases family are cysteine proteases being classified as either executioners; caspase-3, -6, or -7 or initiators; caspase-8 and -9 [36]. Regrading caspase-8, its activation is proceeded through extrinsic death-receptor dependent apoptotic pathway, while, caspase-9 activation is within the event of intrinsic mitochondrial cytochrome c leakage. Additionally, participation of activated caspase-3 is to be essential for caspase-8 activation. […]
Quantikine® Colorimetric Sandwich-ELISA Kit (Cat.#: DCTC0; R&D Systems, Minneapolis, MN, USA) was used for quantitating the targeted human cytochrome c protein through immunoassay protocol. […]
For orientation: An ELISA detects its analyte on a solid surface through an enzyme-linked reagent.

Test [4] concerns MDA-MB-231/breast cancer cells. Put plainly: SRB cytotoxicity assay. In kind it is cell-based. As to conditions: Homo sapiens; MDA-MB-231, 72 h exposure. As for the experimental part:
MDA-MB-231: Breast Cancer cell line was obtained from Nawah^TM Scientific Inc., (Cairo, Egypt). Cells were maintained within DMEM provided by 100 units/mL of penicillin, […], and 10% of heat-inactivated FBS within 5% (v/v) CO2 humidified atmosphere (37 °C). The validity of cell line was evaluated adopting the previously reported approach. Briefly, an accurate volume (100 μL) of cell line suspension (5 × 10^3 cells) was placed in 96-well plates and incubated for 24 h within complete media. Cell line suspensions were then treated with another 100 μL media spiked with various drug concentrations (0.01, 0.1, 1, 10, 100 μM/mL) and kept for 72 h. Then the media were replaced with 150 μL of 10% trichloroacetic acid (TCA) for fixing cells through subsequent 1 h incubation at 4 °C [74]. Following incubation, TCA was removed, and cells were washed via distilled water 5 times. Aliquots of 70 μL SRB solution (0.4% w/v; Cat.# S1402; Sigma-Aldrich^TM, Taufkirchen, Germany) were added and cell were then incubated in dark for 10 min at 25 °C. Plates were subjected to triplicate washing via 1% acetic acid and then permitted to be air-dried overnight. Protein-bound SRB stain was extracted by addition of tris base (150 μL, 10 mM) and the absorbance was measured at 540 nm using FLUOstar-Omega® microplate reader (BMG-Labtech^TM GmbH, Ortenberg, Germany).

The subject of the next test is A549/lung adenocarcinoma. The test can be described thus: Morphological assessment. In kind it is cell-based, human. To be noted: 0.1-100 µM (5-FU 100 µM), 48 h, phase-contrast microscope.

One may read the IC50 as the point on the concentration scale where inhibition reaches its midpoint. Read a high IC50 as a need for much substance.

Consider `CCCc1ccc(-c2nn(-c3ccccc3)cc2C=NNC(=O)c2cc3ccccc3[nH]2)cc1` [Compound 8b, N′-((1-phenyl-3-(4-propylphenyl)-1H-pyrazol-4-yl)methylene)-1H-indole-2-carbohydrazide], for which the influence on necrosis entry in test [1] is reported as “no influence on the necrosis”. In test [1] (quadrant assignment assumed), the “early apoptotic cell population (LR quadrant)” value turned out to be 5.09%, the “late apoptotic cell population (UR quadrant)” value came to 12.02% and the “necrotic cell population (UL quadrant)” value was found to be 1.82%. The “Annexin-V stained positive cells (total apoptotic cells)” value in test [1] (untreated 1.72%) amounted to 18.93%. Also, in test [2], the DNA fragmentation result is on record as “Significant DNA fragmentation”. Also, in test [3], the cytochrome c level worked out at 0.675 ng/mL. In test [4], the IC50 came out at 12.4 ± 0.5 µM. The cell morphology alterations result with A549/lung adenocarcinoma is reported as “Comparable cell morphology changes”.
